Experimental findings from patent publication US20050064524A1, “Population of cells utilizable for substance detection and methods and devices using same” (priority 2003, published 2005) are described below.

Each structure is given as a SMILES string.

Assay [1] deals with U937 cells. The experiment in a line: Specificity of ROS probe DCFH-DA towards hydrogen peroxide and NO donor in labeled cells. In kind it is cell-based. Particulars: FIGS. 22a-b. On the procedure:
The pro-monocyte U937 cell line was used as cell culture model. Hydrogen peroxide was used as a source of ROS. Probe loading of cells was measured in bulk and at individual cell level. Probe concentration, loading time and cell washing were determined for the different ROS probes. The kinetics of ROS generation was measured in real time by monitoring sequentially the same individual cells. Photo toxicity induced by repeated excitations was checked. FIGS. 12-17, 18-19 and 20-21a-b show the ability of dihydrorhodamine 123 (DHR), dichlorodihydrofluorescein diacetate (DCFH-DA) and dihydroethidium (DHE), respectively, to detect ROS formation in U937 cells treated with hydrogen peroxide.
(§1) The specificity of DCFH-DA and DAF-2DA towards ROS and […] respectively, was tested.

The test system of assay [2] is U937 cells. The experiment in a line: Intracellular NO measurement with DAF-2DA probe in labeled cells. Type of assay: cell-based. Particulars: for signal of cells labeled with DAF-2DA (NO probe): FIGS. 22a-b. On the procedure: Fluorescent microscopy and imaging system—Olympus motorized upright epi-fluorescence BX51 microscope, equipped with motorized polarization filters for fluorescence polarization measurements was used. Cells were illuminated by a Mercury light source. The emitted fluorescence was imaged by CoolSNAP HQ monochrome CCD camera, or DVC-1312 (DVC Company, West Austin, Tex., USA) color camera. Digital image analysis of cellular fluorescence was performed by Image Pro plus software (Media Cybernetics. Inc. Silver Spring, Md.,USA).
Quantitative measurements of intracellular NO concentration in individual U937 cells were effected in response to incubation in the presence of the Diethylene triamine NONOate ([…]) donor (0.1-1 mM). The loading of cells with probe was measured in bulk at the individual cell level. Probe concentration loading time and cell washing were determined. The kinetic of NO generation was measured in real time by sequentially monitoring the same individual cells. Photo-toxicity induced by repeated excitations was checked and subtracted. Time response of NO generation in the presence or absence of DETA/NO donor (0.5 mM) in U937 cells labeled with DAF-2DA (10 μM, 15 min) is shown in FIG. 3. […] Quantitative measurements of intracellular NO levels in individual living cells labeled with DAF-2DA and treated with DETA/NO are shown in FIGS. 7a-b and 8a-b.
as §1

In a further assay the test system is individual live cell. To be noted: hydrogen peroxide stimulus, FIG. 27.

Description for individual live cell: Measurement of intracellular ROS in live cells—The measurement of intracellular reactive oxygen species (ROS) levels was performed using the DHR123 (1-10 μM), DCFDA(1 μM) or DHE (2 μM) probes.
For probe loading, 100 μl of cells at a concentration of 1.52×10^6 cells/mL in PBS or in serum free media without phenol red were incubated in the presence of the various probes for 15 min at 37° C. and 5% CO2, and then washed twice in PBS and thereafter exposed to either LPC (10-20 μM), MTX (50 nM) or H2O2 (10-500 μM).

On to `NCCN(CCN)/[N+]([O-])=N/O` [DETA/NO, Diethylene triamine NONOate], for which the “signal of cells labeled with DCFH-DA (ROS probe)” value with U937 cells [1] was “only a minor response”. Further, the “intracellular NO generation in U937 cells in response to donor” value in the assay on U937 cells [2] (U937 cells labeled with DAF-2DA (10 μM, 15 min), donor 0.1-1 mM) is reported as “accumulate NO”. Besides, the “signal of cells labeled with DAF-2DA (NO probe)” value with U937 cells [2] is “strong signal”.
For the compound `OO` [hydrogen peroxide], the “temporal relationship between ROS generation (DHR) and onset of changes in mitochondrial membrane potential (TMRM)” value in the assay on individual live cell was “Hyperpolarization of mitochondrial membrane potential preceded the increase in ROS level”. Moreover, the “signal of cells labeled with DCFH-DA (ROS probe)” value with U937 cells [1] was “strong and quantifiable signal”. Besides, the “signal of cells labeled with DAF-2DA (NO probe)” value with U937 cells [2] was “background signal”.
